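Test compounds were applied to cells in 96-well plates for 48 hours at 5 doses. Definition used: TGI = concentration required for complete inhibition of growth.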
What was measured:
Assay in all cases: DTP human tumour cell line panel, 48 h
DU-145 prostate = system: DU-145 prostate
CCRF-CEM leukemia = system: CCRF-CEM leukemia
EKVX NSCLC = system: EKVX NSCLC
HCT-116 colon = system: HCT-116 colon
T-47D breast = system: T-47D breast
HCT-15 colon = system: HCT-15 colon
MALME-3M melanoma = system: MALME-3M melanoma
LOX IMVI melanoma = system: LOX IMVI melanoma
PC-3 prostate = system: PC-3 prostate
UACC-62 melanoma = system: UACC-62 melanoma
OVCAR-8 ovarian = system: OVCAR-8 ovarian
KM12 colon = system: KM12 colon
SNB-19 CNS = system: SNB-19 CNS
MCF7 breast = system: MCF7 breast
A549 NSCLC = system: A549 NSCLC
HL-60(TB) leukemia = system: HL-60(TB) leukemia
NCI-H226 lung = system: NCI-H226 lung
OVCAR-4 ovarian = system: OVCAR-4 ovarian
HOP-62 NSCLC = system: HOP-62 NSCLC
NCI-H460 lung = system: NCI-H460 lung

| Compound | TGI (DU-145 prostate) [µM] | TGI (CCRF-CEM leukemia) [µM] | TGI (EKVX NSCLC) [µM] | TGI (HCT-116 colon) [µM] | TGI (T-47D breast) [µM] | TGI (HCT-15 colon) [µM] | TGI (MALME-3M melanoma) [µM] | TGI (LOX IMVI melanoma) [µM] | TGI (PC-3 prostate) [µM] | TGI (UACC-62 melanoma) [µM] | TGI (OVCAR-8 ovarian) [µM] | TGI (KM12 colon) [µM] | TGI (SNB-19 CNS) [µM] | TGI (MCF7 breast) [µM] | TGI (A549 NSCLC) [µM] | TGI (HL-60(TB) leukemia) [µM] | TGI (NCI-H226 lung) [µM] | TGI (OVCAR-4 ovarian) [µM] | TGI (HOP-62 NSCLC) [µM] | TGI (NCI-H460 lung) [µM] |
| --- | --- | --- | --- | --- | --- | --- | --- | --- | --- | --- | --- | --- | --- | --- | --- | --- | --- | --- | --- | --- |
| COc1cccc2c1C(=O)C1=C(C2=O)C(O)CC(C)(C)O1 (stereo not given) | > 100 | 66.9 | > 100 | 63 | > 100 | > 100 | 33.7 | 57.3 | 68.4 | 60.9 | 91.5 | 91.2 | > 100 | > 100 | > 100 | 33.8 | > 100 | 55.8 | > 100 | > 100 |
| C=Cc1nc2c(Cl)ncnc2n1Cc1ccccc1 | 7.2 | > 100 | 10.3 | 4.72 | 6.75 | 8.05 | 15.1 | 8.44 | 14.5 | 19.8 | 12 | 11.5 | 31.5 | 9.53 | 29.1 | 9.17 | 17 | 13.5 | 20.1 | 23.6 |
| O=c1ccn([C@@H]2C[C@H]2CO)c(=O)[nH]1 | > 100 | > 100 | > 100 | > 100 | > 100 | > 100 | > 100 | > 100 | > 100 | > 100 | > 100 | > 100 | > 100 | > 100 | > 100 | > 100 | > 100 | > 100 | > 100 | > 100 |
| Cc1ccc(Cc2n[nH]c(=O)[nH]2)cc1 | > 100 | > 100 | > 100 | > 100 | > 100 | > 100 | > 100 | > 100 | > 100 | > 100 | > 100 | > 100 | > 100 | > 100 | > 100 | > 100 | > 100 | > 100 | > 100 | > 100 |
| O=[N+]([O-])c1cccc2nc3ccccc3c(NCCCCNc3c4ccccc4nc4cccc([N+](=O)[O-])c34)c12 | 0.133 | 0.0892 | 2.11 | 0.0347 | 1.04 | 1.02 | 0.255 | 0.258 | > 100 | 0.302 | 1.09 | 0.204 | 0.152 | 0.412 | > 33.2 | 0.0246 | 2.66 | 0.508 | 0.372 | 0.0574 |
| NC(N)=Nc1ccc(-c2ccc(N=C(N)N)cc2)cc1 | > 76.1 | > 95.7 | > 100 | > 100 | > 100 | > 100 | 62.6 | > 100 | 75.9 | > 100 | > 100 | > 100 | > 100 | > 100 | > 100 | > 100 | 65.4 | > 100 | > 100 | > 100 |

— PubChem BioAssay (NCI)
